Reference: paper PMC12876990, “Targeting secreted PLA2 interactions with EGFR and vimentin to arrest prostate tumour growth” (Cell Death & Disease, 2025)
Entries after “also recorded” stand apart in the source; their conditions may differ. Square brackets hold non-standard residues; d marks the D form. Peptide text beside a SMILES is read from it. 2Nal = N[C@@H](Cc1ccc2ccccc2c1)C(=O)O

Tests used:
[1] = 28-day oral toxicity study: feed consumption
Method: (§1) The calculated volumetric do se wa s administered to each rat orally by gav age, using a plastic
(§2) intragastric cannula attached to a 3 mL syringe.
(§3) Two dose level s of 1 and 20 mg/kg of the te st it em susp ension were administered to each rat
(§4) every 3 days (total 10 do ses) for 28 days. This c orresponded to volumetric dose of 10.09 and
(§5) 10.23 mL/kg. The volumetric dose administered to each animal was calculated on Days 1, 8, 15
(§6) Feed consumption was monitored weekly over the 28-day experimental period in all groups
(§7) and was continued for a further 2 weeks in the recovery groups (42-day experimental
(§8) period). Feed intake was monitored by providing a known mass of feed to each cage and
(§9) subtracting the mas s remaining at the end of th e weekly period. Animals were fa sted
(§10) overnight on either Day 28 (main groups) or Day 42 (recovery groups).

[2] = rat, in vivo, 20 mg/kg
Method: as §1, §2, §3, §4, §5, §6, §7, §8, §9, §10

[3] = 28-day repeated dose oral toxicity study (OECD 407): overall toxicity, mortality; type: in vivo, male Sprague Dawley rats
Method: Potential toxicity of c2 was evaluated with a 28-day repeated dose oral toxicity study (OECD 407) in male Sprague Dawley rats, with a recovery period. Animals (n = 10 per group) were treated with vehicle (1% carboxymethylcellulose in distilled water), c2 at 1 mg/kg or at 20 mg/kg every three days for 28 days. Animals were sacrificed on day 29 and blood and tissues were taken for further analysis. Two recovery groups treated concomitantly with the main study (n = 5, vehicle of 20 mg/kg c2) were monitored for a further 14-day treatment-free period, sacrificed on Day 43 and blood and tissues taken for analysis. (Data available on request).
2.8.4. Repeated dose toxicity
Repeated do se toxicity is the adver se effects o ccurring within a short time of several repeated administrations of a test item over a defined period.
The test item is the article that is the subject of the study.
Vehicle is any agent, which serves as a carrier used to mix, disperse, or solubilize the test item or reference item to facilitate the administration/application to the test system.
2.9. Principle of the test method
The test item suspension or vehicle was administered orally by gavage every three days for 28 days to three groups of male rat s at two do se le vels (low - 1 and high - 20 mg/kg) to as ses s toxicity. Two vehicle control groups were dosed with the vehicle. A recovery group was included to investigate reversibility of any toxicity and persistence or delayed occurrence of […]
Daily clinical obs ervations were performed. Weekly detailed clinical examination s were performed on all animals. Functional observations were performed in the last week of treatment.
Body weights were monitored weekly throughout the study. Feed intake was measured weekly.
Gross necropsy was conducted in all animals th at died or were killed during the study. Full blood analysis and detailed histopathology was performed on conclusion of the main study.
All tissues and carcasse s were placed in 10% formalin and retained for a period of 6 months. […]
3.1. Regulatory references
The study was conducted according to the OECD Guidelines for the Testing of Chemical s, No.407 - Repeated Dose 28-Day Oral Toxicity Study in Rodents. [Adopted: 3 October […]
3.1.2. Good Laboratory Practice
This study was conducted in accordance with the Organization of Economic Cooperation and Development (OECD) Principles of Good Laboratory Practice (as revised in 1997) ENV/MC/CHEM (98) 17. The study was performed in accordance with the agreed protocol and with ICP Firefly Pty Ltd Standard Operating Procedures (SOPs).
3.1.3. Animal Welfare Act compliance
The experimental protocol was approved by the ICP Firefly Animal Ethics Committee, and […]
Regulation 2005 and the Code of Practice under t hat Regulation. It was granted Approval […]
The Sponsor provided a Certificate of Analysis for the test item, which is attached a s an appendix to the report (Appendix A Certificate of Analysis). […]
3.4.1. Justification for species selection
The Specific Pathogen Free [SPF] male Sprague Dawley rat was selected since it is widely accepted and recognised by international guidelines as an appropriate experimental model […]
3.4.2. Species, strain source and housing
A total of 40 young adult Spe cific Pathogen Fr ee Mal e Sprague D awley rats weighing between 189 and 212 grams the b eginning of the experiment were used for the study. The animals were obtained from Animal Resources Ce ntre (ARC), WA, Australia. […]

[4] = 28-day oral toxicity study: gross necropsy and organ weights; type: in vivo, male Sprague Dawley rats; conditions: for Heart weight on Necropsy: n = 10, mean ± SD
Method: The observations were recorded in the form of a sp readsheet and attached as an app endix to the report (Appendix C Study Data Spreadsheets). […]
Haematology and Biochemistry). […]
(Appendix C Study Data Spreadsheets).
Following sacrifice by intraperitoneal injection of sodium pentobarbitone a gros s necrop sy wa s performed. This included determination of the wet weight of the liver, kidneys, adrenals, testes, spleen, thymus, heart, epididymis, prostate + semi nal vesicle s with coagulating glands as whole […]
and brain. […]
Tissues and carcas ses were placed in 10% formalin. The tissues to be processed for histopathological examinations were fixed for at least 48 hours prior to cassette preparation. […]
Slides were […]
evaluated for histology change s under light microscopy at a magnification of 100 to 1000 times.
Individual histopathology results and a summar y are attached a s an app endix to the report (Appendix E Histopathology).
3.14. Statistical analyses
Clinical observations, detailed clinical observations, functional observations, blood and urine analyses and histopathology were summarised by descriptive analysis.
Statistical analyses, consisting of unpaired t-tests, were performed on measured variables: percentage body weight gain s, food consumption and organ weights as a percentage of body weight. A significance level of P < 0.05 was used for all tests.

[5] = Day 43, Gr 5 recovery, 20 mg/kg

In the case of `CC(C)C[C@@H]1NC(=O)[C@H](Cc2ccc3ccccc3c2)NC(=O)[C@H](CCCNC(=N)N)NC(=O)[C@H](Cc2ccc3ccccc3c2)NC(=O)[C@H](CO)NC1=O` [c2, cyclo-((2-Nal)-Leu-Ser-(2-Nal)-Arg)] (cyclo([2Nal]LS[2Nal]R)), the “feed intake vs control” value ([1]; 28-day and 42-day experimental period) is reported as “similar”, the Mean feed intake/cage/week ([1]; Week 1, Gr 2, 1 mg/kg, 5 animals/cage) is reported as 801 ± 26.9 g and the Mean feed intake/cage/week ([1]; Week 1, Grs 3 & 5, 20 mg/kg) is reported as 819 ± 55.4 g. For the same compound, the Mean feed intake/cage/week ([1]; Week 2, Gr 2, 1 mg/kg) was 839 ± 12.0 g, the Mean feed intake/cage/week ([1]; Week 2, Grs 3 & 5, 20 mg/kg) was 877 ± 45.1 g and the Mean feed intake/cage/week ([1]; Week 3, Gr 2, 1 mg/kg) was 845 ± 0 g. For the same compound, the Mean feed intake/cage/week ([1]; Week 3, Grs 3 & 5, 20 mg/kg) was 916 ± 35.2 g, the Mean feed intake/cage/week ([1]; Week 4, Grs 3 & 5, 20 mg/kg) was 815 ± 42.0 g and the Mean feed intake/cage/week ([1]; Week 5, Gr 5 recovery, 20 mg/kg) was 1013 g. The Mean feed intake/cage/week ([1]; Week 6, Gr 5 recovery, 20 mg/kg) was 802 g, the Mean feed intake/cage/week ([1]; week 4, Gr 2, 1 mg/kg) was 775 ± 27.6 g and the Mean feed intake/cage [2] was 5180 g. For the same compound, the “effective concentration relative to the maximum observed dosage with no toxicity” value ([3]; 0.1 mg/kg vs 40 mg/kg) was 400 times, the “urinalysis and blood analysis” value ([3]; 1 and 20 mg/kg) was “no test item related effects” and the “toxicity (all measures)” value ([3]; 1 and 20 mg/kg po every three days over 28 days) was “no observable toxicity; also recorded: no toxic effects”. For the same compound, the “mortality related to the treatment” value ([3]; 1 and 20 mg/kg, main and recovery study) was “No mortalities”, the NOAEL at 672 h ([3]; male, Sprague Dawley, rat, in vivo, po, Appendix 1, read-out: maximum observed dosage with no toxicity) was 40 mg/kg and the “Heart weight (% body weight)” value ([4]; 1 mg/kg) was 0.31 ± 0.026 % body weight. For the same compound, the “Heart weight on Necropsy” value ([4]; 1 mg/kg) was 1.211 ± 0.1348 g, the “Heart weight (% body weight)” value ([4]; 20 mg/kg) was 0.34 ± 0.025 % body weight and the “Heart weight on Necropsy” value ([4]; 20 mg/kg) was 1.322 ± 0.1050 g. For the same compound, the “Organ weight: Adrenals” value ([4]; Day 29, Gr 2, 1 mg/kg) was 0.0454 ± 0.00783 g, the “Organ weight: Spleen” value ([4]; Day 29, Gr 2, 1 mg/kg) was 0.8031 ± 0.0637 g and the “effect on organ weights as a percentage of body weight” value ([4]; Day 29, Gr 2, 1 mg/kg) was “did not have any effect”. For the same compound, the “macroscopic changes at necropsy” value ([4]; Day 29, Gr 2, 1 mg/kg) was “No gross abnormalities”, the “Organ weight: Adrenals” value ([4]; Day 29, Gr 3, 20 mg/kg) was 0.0473 ± 0.00889 g and the “effect on organ weights as a percentage of body weight” value ([4]; Day 29, Gr 3, 20 mg/kg) was “did not have any effect”. For the same compound, the “macroscopic changes at necropsy” value ([4]; Day 29, Gr 3, 20 mg/kg) was “No gross abnormalities”, the “Organ weight (% body weight): Adrenals” value [4, 5] was 0.0097 ± 0.00158% and the “Organ weight: Adrenals” value [4, 5] was 0.0443 ± 0.0061 g. For the same compound, the “effect on organ weights as a percentage of body weight” value [4, 5] was “did not have any effect” and the “macroscopic changes at necropsy” value [4, 5] was “No gross abnormalities”.
